{
  "source": "patent US20030165853A1",
  "about": "“Antisense imaging of gene expression of the brain in vivo” (The Regents of the University of California Office of …, priority 2000, published 2003)",
  "key": {"[1]": {"details": "mouse, in vivo", "method": "(§1) Adult male BALB/c mice were divided into 5 groups of 3 mice each for the pharmacokinetic study. The mice were anesthetized with an intraperitoneal injection of ketamine (100 mg/kg) and xylazine (2 mg/kg). The injection solution contained 5 μCi of [^125I]-HD-PNA with or without conjugation to 2 μg of 8D3-SA in 0.01 M PBS/pH 7.4, and a total volume of 50 μl was administered via the jugular vein of each mouse. Groups of 3 mice each were sacrificed at 0.25, 2, 5, 15, and 60 min after the isotope injection and arterial blood was sampled from the aorta. After spinning the blood samples, the collected supernatant (serum) was counted for [^125I]-radioactivity using a γ-counter (Beckman Instruments, Inc., Fullerton, Calif.). An aliquot of serum was precipitated with cold 10% TCA, and the fraction of total serum radioactivity that was TCA precipitated was determined. The brain and peripheral organs (liver, kidney, heart, lung, and spleen) were removed from each mouse at 60 min after the isotope administration and total [^125I]-radioactivity in the organ was measured.\nThe organ permeability-surface area (PS) product of either the unconjugated [^125I]-HD-PNA, or the [^125I]-HD-PNA conjugated to 8D3/SA, was calculated as follows: [formula] […]\nThe brain delivery of the compound was expressed as percentage of injected dose (ID)/g brain, and was calculated as follows: […]"}, "human HD exon 1": {"system": "human HD exon 1", "experiment": "Translation arrest (combined in vitro transcription/translation of HD exon 1)", "format": "biochemical", "details": "5-50 μM antisense agent, [3H]-leucine incorporation", "method": "The hybridization of the antisense HD-PNA to the HD transcript was determined using a combination of transcription and translation that mimics in vivo conditions as previously described (Boado et al. (2000) J. Pharmacol. Exp. Ther., 295: 239-243). The cDNA containing the human HD exon 1 was sublconed into the Bluescript KS+plasmid, between either T3 or T7 RNA polymerase promoters, and this plasmid is designated clone 839, as described previously (Id). Transcription/translation of human HD exon 1 clone 839 was performed with 0.2 μg clone 839 plasmid DNA in the presence of T3 RNA polymerase, 5 μCi [^3H]-leucine, and 50% v/v rabbit reticulocyte lysate using the T3-TNT translation system (Promega, Madison, Wis.), as described previously (Id). Dose response studies with newly synthesized PNAs were performed and compared with a positive control antisense phosphodiester-ODN, designated ODN-III, as described (Id). Samples were incubated for 30 min at 30 ° C., and incorporation of [^3H]-leucine into HD exon 1 protein was analyzed by trichloroacetic acid (TCA) precipitation, and data expressed as percent of control, which lacked any added PNA or ODN. The HD exon 1 insert is 10% of the total plasmid, or about […] per 12.5 μL reaction. Since the TNT produces 10-30 RNA copies per plasmid, the final concentration of the HD RNA in the TNT reaction is approximately 1 μM. […]"}, "HD mRNA": {"system": "HD mRNA", "experiment": "HD RNase protection assay", "format": "binding, human", "details": "RNase T1/A digestion, PAGE autoradiography", "method": "The sense RNA was synthesized with T3 RNA polymerase following linearization of the plasmid with EcoRI. The transcribed RNA was radiolabeled with [^32Pα]ATP to a specific activity of 0.22 μCi/pmol, as previously described (Boado and Pardridge (1994) Bioconj. Chem., 6: 406-410). For the RNAse protection assay, 0.6 pmol of biotinylated HD-PNA or biotinylated luciferase-PNA, with or without conjugation to 6.4 pmol of MAb-SA, was added to 10^5 CPM of [^32P]-labeled sense HD RNA (0.2 pmol) in 3 μl buffer (80 mM NaCl, 7 mM phosphate buffer, pH=7.5, 0.1% BSA), and annealed for 30 minutes at 42° C. Then 20 units RNAse Ti and 2.5 μg RNAse A were added to the samples in 17 μl of RNAse digestion buffer (0.3 M NaCl, 10 mM TRIS pH=7.5, 4 mM EDTA, 0.02% tRNA, 0.02% BSA) and incubated for 30 min at 37° C. RNA fragments were analyzed by 7 M urea/20% polyacrylamide gel electrophoresis following by autoradiography as described by Pardridge et al. (1995) Proc. Natl. Acad. Sci., USA, 92:5592-5596. Labeled RNA and PNAs were heat denatured for 2 minutes at 95° C. and then incubated on ice for 2 minutes immediately before the experiment or conjugation to MAb-SA."}, "[2]": {"details": "mouse, in vivo, iv", "method": "as §1\nPharmacokinetic parameters were determined by fitting the serum TCA-precipitable radioactivity data to a biexponential equation with a weighting factor of [1/A(t)]^2 using a derivative-free nonlinear regression analysis (PARBMDP, Biomedical Computer P-Series, developed at UCLA Health Science Computing Facilities).\nwhere A(t)=% injected dose (ID)/ml serum at a given time (t)."}},
  "data": [
    {"substance": "[^125I]-PNA: biotinylated 16-mer PNA complementary to nucleotides −1 to +15 of human HD exon 1, Tyr-Lys, amidated carboxyl terminus; radioiodinated (CTTCCATTTTACCAAC; all peptide nucleic acid (PNA); biotinylated, Tyr-Lys added, amidated C-terminus, radioiodinated, positions not given here)", "values": [
      {"measurement": "BBB PS product", "setting": "[1]", "result": "< 0.3", "unit": "µL/min/g"},
      {"measurement": "inhibition of cell free translation of HD exon 1 protein", "setting": "human HD exon 1", "result": "inhibits the cell free translation"},
      {"measurement": "hybridization to HD mRNA (RNase protected fragment)", "setting": "HD mRNA", "result": "specifically hybridizes to the target mRNA"},
      {"measurement": "A1", "setting": "[2]", "result": "32 ± 2", "unit": "% ID/ml"},
      {"measurement": "A2", "setting": "[2]", "result": "6.3 ± 0.7", "unit": "% ID/ml"},
      {"measurement": "AUC (60 min)", "setting": "[2]", "result": "308 ± 36", "unit": "% ID · min/ml"},
      {"measurement": "AUC (∞)", "setting": "[2]", "result": "399 ± 49", "unit": "% ID · min/ml"},
      {"measurement": "K1", "setting": "[2]", "result": "0.37 ± 0.04", "unit": "min⁻¹"},
      {"measurement": "K2", "setting": "[2]", "result": "0.0206 ± 0.0014", "unit": "min⁻¹"},
      {"measurement": "VSS", "setting": "[2]", "result": "0.374 ± 0.042", "unit": "L/kg"},
      {"measurement": "t½^1", "setting": "[2]", "result": "1.9 ± 0.2", "unit": "min"},
      {"measurement": "t½^2", "setting": "[2]", "result": "34 ± 3", "unit": "min"}
    ]}
  ]
}
